Test results: article PMC10062711 (Journal of Molecular Structure, 2023)

Assays:
[1] = system: A. niger; experiment: In vitro antifungal MIC; type: cell-based; conditions: 72-96 h incubation
[2] = system: Rhizopus sp; experiment: In vitro antifungal MIC; type: cell-based; conditions: 72-96 h incubation
[3] = system: P. aeruginosa (MTCC-741); experiment: In vitro antibacterial MIC, microbroth dilution; type: cell-based; conditions: 24 h incubation
[4] = system: K. pneumonia (MTCC2272); experiment: In vitro antibacterial MIC, microbroth dilution; type: cell-based, K. pneumoniae; conditions: 24 h incubation
[5] = system: A. flavus; experiment: In vitro antifungal MIC; type: cell-based; conditions: 72-96 h incubation
[6] = system: Mycobacterium tuberculosis H37Rv; experiment: Antitubercular activity, Resazurin Assay method; type: cell-based; conditions: for MIC / % Inhibition: M. tb H37Rv; for MIC: neutral pH; for % Inhibition: primary screening (6.5 mg/mL); for antitubercular activity compared to PZA: M. tuberculosis H37Rv, versus PZA
[7] = system: S. aureus (MTCC-96); experiment: In vitro antibacterial MIC, microbroth dilution; type: cell-based; conditions: for MIC S. aureus: 24 h incubation
[8] = system: B. subtilis (MTCC-121); experiment: In vitro antibacterial MIC, microbroth dilution; type: cell-based; conditions: for MIC B. subtilius: 24 h incubation
[9] = system: C. albicans; experiment: In vitro antifungal MIC; type: cell-based; conditions: 72-96 h incubation
[10] = system: E. coli (MTCC-443); experiment: In vitro antibacterial MIC, microbroth dilution; type: cell-based; conditions: for MIC E. coli: 24 h incubation
[11] = system: peripheral blood mononuclear cells (PBMC); conditions: MTT assay

Substance | MIC A. niger [1] [µg/mL] | MIC Rhizopus sp [2] [µg/mL] | MIC P. aeruginosa [3] [µg/mL] | MIC K. pneumoniae [4] [µg/mL] | MIC A .flavus [5] [µg/mL] | MIC [6] [µg/mL] | % Inhibition [6] [%] | MIC S. aureus [7] [µg/mL] | MIC B. subtilius [8] [µg/mL] | potency against B. substilius compared to the standard drug ([8]; versus Streptomycin) | MIC C. albicans [9] [µg/mL] | MIC E. coli [10] [µg/mL] | antitubercular activity compared to PZA [6] | IC50 (cytotoxicity) [11] [µg/mL] | activity against S. aureus compared to the standard drug ([7]; versus Streptomycin) | inhibitory activity against E. coli compared to Streptomycin ([10]; versus Streptomycin)
3,5-Dimethyl-2,6-bis(p-methylphenyl)−4H-pyran-4-one O-((3-(4-chlorophenyl) isoxazol-5-yl)methyl) oxime [Compound 35] | 25 | 50 | 25 | 25 | 25 | 6.25 | 82 | 12.5 | 12.5 | two-fold | 25 | 25 |  |  |  | 
3-Ethyl-2,6-diphenylpyran-4-one N-isonicotinoylhydrazone [Compound 8] | 25 | 12.5 | 25 | 12.5 | 25 |  | 70 | 50 | 6.3 |  | 25 | 6.3 | twice | 486.2 |  | 
3-Ethyl-2,6-diphenyltetrahydro-4H-pyran-4-one O-ethynyl oxime [Compound 20] | 25 | 50 | 25 | 25 | 100 |  |  | 12.5 | 25 |  | 100 | 12.5 |  |  | fourfold | 
3,5-Dimethyl-2,6-bis(p-methoxyphenyl)pyran-4-one N-isonicotinoylhydrazone [Compound 12] | 25 | 50 | 100 | 25 | 12.5 |  | 70 | 50 | 25 |  | 25 | 50 | twice | 609.1 |  | 
3,5-Dimethyl-2,6-bis(p-chlorophenyl)−4H-pyran-4-one O-((1-phenyl-1H-1,2,3-triazol-4-yl) methyl)oxime [Compound 27] | 25 |  | 25 | 50 | 25 | 6.25 | 75 | 25 | 50 |  |  | 6.3 |  |  |  | two-fold
3-Methyl-2,6-diphenylpyran-4-one N-isonicotinoylhydrazone [Compound 7] | 50 | 25 | 12.5 | 12.5 | 12.5 | 6.25 | 73 | 25 | 12.5 |  | 25 | 6.3 |  |  |  | 
3-Methyl-2,6-diphenyltetrahydro-4H-pyran-4-one O-ethynyl oxime [Compound 19] | 50 | 100 | 100 | 25 | 100 |  |  | 50 | 25 |  | 100 | 50 |  |  |  | 
3,5-Dimethyl-2,6-bis(p-methylphenyl)pyran-4-one N-isonicotinoylhydrazone [Compound 11] | 50 | 50 | 25 | 25 | 25 |  | 76 | 12.5 | 25 |  | 50 | 12.5 | twice | 587.6 |  | 
3,5-Dimethyl-2,6-bis(p-methoxyphenyl)−4H-pyran-4-one O-((3-(4-chlorophenyl) isoxazol-5-yl)methyl)oxime [Compound 36] | 6.3 | 50 | 100 | 25 | 6.3 | 6.25 | 75 | 50 | 50 |  | 25 | 25 |  |  |  | 
